These results are taken from US10221163B2 (priority 2015, dated 2019).

Structures are written as SMILES. Where two headings read alike, the source gives them in different places.

One data set addresses IMP-1 (Serratia marcescens, UniProt P52699). Description: biochemical. The settings on record: fluorescence assay, CCF2-FA substrate, 2 pM enzyme, 2 hours at 25° C.; read-out: IMP-1 IC50. The data set is classed as biochemical. In short, it runs like this: (§1)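 Test compound, enzyme and the FRET cephalosporin substrate CCF2-FA are incubated together for 2 hours at 25° C. Cleavage is followed by fluorescence, and IC50 values are derived from semi-logarithmic inhibition curves fitted with a 4-parameter model.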

The target in another data set is NDM-1 (Klebsiella pneumoniae, UniProt C7C422). Description: biochemical. The format is biochemical. The settings on record: CCF2-FA substrate, 1 pM enzyme, 2 hours at 25° C. The gist of the method:
as §1

A further data set has as its target VIM-1 (Pseudomonas aeruginosa (strain ATCC 15692 / DSM 22644 / CIP 104116 / JCM 14847 / LMG 12228 / 1C / PRS 101 / PAO1), UniProt A0A0F7KYQ8). Nature of the data set: biochemical. The settings on record: CCF2-FA substrate, 30 pM enzyme, 2 hours at 25° C. In short, it runs like this: as §1
In data set [1] the test system is Escherichia coli expressing NDM-1 (CLB30005, CLB30016). The format is cell-based. The settings on record: with imipenem 1 μg/ml; 95% inhibition of bacterial growth. The gist of the method: (§2)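 Imipenem 1 μg/ml + inhibitor; MBL-expressing clinical strains in 1.1×CAMHB, inoculum from saline suspension diluted 1:100; 35° C, 22–24 h; absorbance read-out.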
Data set [2] relates to Klebsiella pneumoniae expressing VIM-1 (IHMA599644). The format is cell-based. Conditions: with imipenem 1 μg/ml; 95% inhibition of bacterial growth. The gist of the method:
as §2

Data set [3] relates to Serratia marcescens expressing IMP-1 (CL5741). The data set is classed as cell-based. Conditions: with imipenem 1 μg/ml; 95% inhibition of bacterial growth. In short, it runs like this:
as §2

For data set [4], the system named is Pseudomonas aeruginosa efflux+ (MB9798), IMP-1. The format is cell-based. Conditions: concentration restoring susceptibility to imipenem at 2 μg/mL in the presence of a class A, C, D serine β-lactamase inhibitor closely related to relebactam. The gist of the method:
(§3)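 Steps: add fixed imipenem and/or ceftazidime (usually CLSI breakpoint) and fixed AmpC-directed class A/C inhibitor to microbroth MIC wells; titrate MBL inhibitor; record concentration regaining susceptibility for each PAO1-derived strain; divide efflux+ by efflux− value.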

Data set [5] has as its system Pseudomonas aeruginosa efflux− (MB9799), IMP-1. The data set is classed as cell-based. The settings on record: concentration restoring susceptibility to imipenem at 2 μg/mL in the presence of a class A, C, D serine β-lactamase inhibitor closely related to relebactam. In short, it runs like this: as §3
In data set [6] the test system is Pseudomonas aeruginosa MB9798 vs MB9799. Conditions: ratio MITC95 PA_9798/MITC95 PA_9799. The gist of the method:
as §3

Where [7] appears, read: fluorescence assay, read-out: NDM-1 IC50.
Where [8] appears, read: fluorescence assay, read-out: VIM-1 IC50.

IMP-1, sequence (P52699 whole entry, looked up, species assumed): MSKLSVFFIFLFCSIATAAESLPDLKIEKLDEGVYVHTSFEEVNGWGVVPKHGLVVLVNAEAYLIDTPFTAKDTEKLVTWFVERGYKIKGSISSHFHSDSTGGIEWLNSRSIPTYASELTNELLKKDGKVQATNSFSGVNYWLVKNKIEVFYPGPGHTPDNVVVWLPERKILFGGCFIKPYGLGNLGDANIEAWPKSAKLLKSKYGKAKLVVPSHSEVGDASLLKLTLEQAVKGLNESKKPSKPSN
NDM-1, sequence (C7C422 whole entry, looked up, species assumed): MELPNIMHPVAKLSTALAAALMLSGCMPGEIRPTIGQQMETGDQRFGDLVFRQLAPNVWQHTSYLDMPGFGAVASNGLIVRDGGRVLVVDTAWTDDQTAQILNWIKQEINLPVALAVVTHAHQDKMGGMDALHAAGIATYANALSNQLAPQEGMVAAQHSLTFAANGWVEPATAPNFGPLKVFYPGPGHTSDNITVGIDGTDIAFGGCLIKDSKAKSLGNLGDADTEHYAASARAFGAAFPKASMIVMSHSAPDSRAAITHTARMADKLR

For the molecule `CN(C[C@@H]1CCCN1)S(=O)(=O)c1ccc(-c2cccc3sc(N)nc23)c(-c2nnn[nH]2)c1S(N)(=O)=O.O=CO` [Example 121, (S)-2-((4-(2-aminobenzo[d]thiazol-4-yl)-N-methyl-2-sulfamoyl-3-(1H-tetrazol-5-yl)phenylsulfonamido)methyl)pyrrolidin-1-ium formate], the IC50 was found to be 2.84 nM at IMP-1, 1.42 nM at NDM-1 (setting [7]) and 7.08 nM at VIM-1 (setting [8]). For the same molecule, the “Escherichia coli expressing NDM-1 (CLB30016) MITC95” value in data set [1] was 6.25 µM. Also, in [2], the “Klebsiella pneumoniae expressing VIM-1 (IHMA599644) MITC95” value is 12.5 µM. Also, the “Serratia marcescens expressing IMP-1 (CL5741) MITC95” value in data set [3] came to 3.125 µM. In addition, the “P. aeruginosa expressing IMP-1, efflux + (MB9798) MITC95” value in data set [4] came to 12.5 µM. Besides, the “P. aeruginosa expressing IMP-1, efflux − (MB9799) MITC95” value in data set [5] came out at 3.125 µM. Also, the Efflux ratio in data set [6] was 4.00.
Regarding `Nc1nc2c(-c3ccc(S(=O)(=O)NCCC(N)CF)c(S(N)(=O)=O)c3-c3nnn[nH]3)cccc2s1.O=CO` (stereo not drawn) [Example 123, 4-(4-(2-aminobenzo[d]thiazol-4-yl)-2-sulfamoyl-3-(1H-tetrazol-5-yl)phenylsulfonamido)-1-fluorobutan-2-aminium formate], the concentration for half-maximal inhibition (IC50) came to 0.219 nM at IMP-1; 0.036 nM on NDM-1 (setting [7]); 0.189 nM at VIM-1 (VIM-1 IC50, fluorescence assay). Further, in data set [1], the “Escherichia coli expressing NDM-1 (CLB30016) MITC95” value was 1.563 µM. Moreover, in data set [2], the “Klebsiella pneumoniae expressing VIM-1 (IHMA599644) MITC95” value worked out at 3.125 µM. In data set [3], the “Serratia marcescens expressing IMP-1 (CL5741) MITC95” value turned out to be 1.563 µM. Further, in data set [4], the “P. aeruginosa expressing IMP-1, efflux + (MB9798) MITC95” value was found to be 1.563 µM. For the same molecule, the “P. aeruginosa expressing IMP-1, efflux − (MB9799) MITC95” value in data set [5] was 1.563 µM. The Efflux ratio in data set [6] is recorded as 1.00.
Turning to `Nc1nc2c(-c3ccc(S(=O)(=O)NCCC(N)C(F)F)c(S(N)(=O)=O)c3-c3nnn[nH]3)cccc2s1.O=CO` (stereo not drawn) [Example 124, 4-(4-(2-aminobenzo[d]thiazol-4-yl)-2-sulfamoyl-3-(1H-tetrazol-5-yl)phenylsulfonamido)-1,1-difluorobutan-2-aminium formate], the half-maximal inhibitory concentration (IC50) at IMP-1 came to 0.222 nM; against NDM-1 (NDM-1 IC50, fluorescence assay), 0.00652 nM; at VIM-1 (VIM-1 IC50, fluorescence assay) it was 0.254 nM. Moreover, the “Escherichia coli expressing NDM-1 (CLB30016) MITC95” value in data set [1] turned out to be 12.5 µM. The “Klebsiella pneumoniae expressing VIM-1 (IHMA599644) MITC95” value in data set [2] was determined as 12.5 µM. In addition, the “Serratia marcescens expressing IMP-1 (CL5741) MITC95” value in data set [3] turned out to be 3.125 µM. The “P. aeruginosa expressing IMP-1, efflux + (MB9798) MITC95” value in data set [4] is 12.5 µM. In addition, in data set [5], the “P. aeruginosa expressing IMP-1, efflux − (MB9799) MITC95” value was 3.125 µM. Also, in data set [6], the Efflux ratio is 4.00.
With `C[C@H](N)CNS(=O)(=O)c1ccc(-c2cccc3sc(N)nc23)c(-c2nnn[nH]2)c1S(N)(=O)=O.O=CO` [Example 127, (S)-4-(2-aminobenzo[d]thiazol-4-yl)-N1-(2-aminopropyl)-3-(1H-tetrazol-5-yl)benzene-1,2-disulfonamide, formate salt], the IC50 on IMP-1 worked out at 0.322 nM; on NDM-1 (setting [7]) it was 0.0421 nM; at VIM-1 (VIM-1 IC50, fluorescence assay), 0.236 nM. Besides, the “Escherichia coli expressing NDM-1 (CLB30016) MITC95” value in [1] worked out at 3.125 µM. Besides, the “Klebsiella pneumoniae expressing VIM-1 (IHMA599644) MITC95” value in data set [2] is 3.125 µM. Moreover, the “Serratia marcescens expressing IMP-1 (CL5741) MITC95” value in data set [3] came to 1.563 µM. The “P. aeruginosa expressing IMP-1, efflux + (MB9798) MITC95” value in data set [4] was found to be 1.563 µM. Besides, the “P. aeruginosa expressing IMP-1, efflux − (MB9799) MITC95” value in data set [5] is 1.563 µM. Moreover, the Efflux ratio in [6] was 1.00.
As to `COC(=O)[C@H]1C[C@@H](NS(=O)(=O)c2ccc(-c3cccc4sc(N)nc34)c(-c3nnn[nH]3)c2S(N)(=O)=O)CN1` [Example 128, Methyl (2R,4R)-4-((4-(2-aminobenzo[d]thiazol-4-yl)-2-sulfamoyl-3-(1H-tetrazol-5-yl)phenyl)sulfonamido)pyrrolidine-2-carboxylate], the IC50 on IMP-1 is 0.177 nM; on NDM-1 (setting [7]), 0.0443 nM; at VIM-1 (VIM-1 IC50, fluorescence assay) it was 0.199 nM. The “Escherichia coli expressing NDM-1 (CLB30016) MITC95” value in data set [1] amounted to 3.125 µM. In data set [2], the “Klebsiella pneumoniae expressing VIM-1 (IHMA599644) MITC95” value was determined as 12.5 µM. Also, in data set [3], the “Serratia marcescens expressing IMP-1 (CL5741) MITC95” value is 6.25 µM. Also, the “P. aeruginosa expressing IMP-1, efflux + (MB9798) MITC95” value in data set [4] came to 6.25 µM. Moreover, the “P. aeruginosa expressing IMP-1, efflux − (MB9799) MITC95” value in [5] is 6.25 µM. Further, the Efflux ratio in data set [6] was found to be 1.00.
Consider `NS(=O)(=O)c1c(S(=O)(=O)N[C@@H]2CCNC2)ccc(-c2cccc3nc(O)[nH]c23)c1-c1nnn[nH]1` [Example 130, (R)-4-(2-hydroxy-1H-benzo[d]imidazol-7-yl)-N1-(pyrrolidin-3-yl)-3-(1H-tetrazol-5-yl)benzene-1,2-disulfonamide], for which the IC50 worked out at 0.684 nM at IMP-1, 0.0529 nM on NDM-1 (setting [7]) and 0.151 nM at VIM-1 (setting [8]). For the same molecule, in [1], the “Escherichia coli expressing NDM-1 (CLB30016) MITC95” value worked out at 1.563 µM. Further, the “Klebsiella pneumoniae expressing VIM-1 (IHMA599644) MITC95” value in [2] came to 3.125 µM. Also, the “Serratia marcescens expressing IMP-1 (CL5741) MITC95” value in data set [3] came out at 1.563 µM. Also, the “P. aeruginosa expressing IMP-1, efflux + (MB9798) MITC95” value in data set [4] turned out to be 0.7813 µM. Besides, the “P. aeruginosa expressing IMP-1, efflux − (MB9799) MITC95” value in data set [5] is 1.563 µM. Moreover, the Efflux ratio in data set [6] stood at 0.50.
For the molecule `NS(=O)(=O)c1c(S(=O)(=O)N[C@@H]2CCNC2)ccc(-c2cccc3c2OC(F)(F)O3)c1-c1nnn[nH]1` [Example 131, (R)-4-(2,2-difluorobenzo[d][1,3]dioxol-4-yl)-N1-(pyrrolidin-3-yl)-3-(1H-tetrazol-5-yl)benzene-1,2-disulfonamide], the IC50 was 1.83 nM at IMP-1, 0.275 nM on NDM-1 (setting [7]) and 0.12 nM on VIM-1 (setting [8]). Further, in data set [1], the “Escherichia coli expressing NDM-1 (CLB30016) MITC95” value turned out to be 1.563 µM. Moreover, in data set [2], the “Klebsiella pneumoniae expressing VIM-1 (IHMA599644) MITC95” value is 1.563 µM. Also, in data set [3], the “Serratia marcescens expressing IMP-1 (CL5741) MITC95” value turned out to be 3.125 µM. The “P. aeruginosa expressing IMP-1, efflux + (MB9798) MITC95” value in data set [4] was 12.5 µM. Further, the “P. aeruginosa expressing IMP-1, efflux − (MB9799) MITC95” value in data set [5] amounted to 0.7813 µM. Besides, the Efflux ratio in data set [6] came out at 16.00.
Turning to `N#Cc1cccc(-c2ccc(S(=O)(=O)N[C@@H]3CCNC3)c(S(N)(=O)=O)c2-c2nnn[nH]2)c1N` [Example 132, (R)-2′-amino-3′-cyano-N4-(pyrrolidin-3-yl)-2-(1H-tetrazol-5-yl)-[1,1′-biphenyl]-3,4-disulfonamide], the IC50 came to 1.4 nM on IMP-1, 0.114 nM on NDM-1 (setting [7]) and 0.124 nM at VIM-1 (setting [8]). For the same molecule, the “Escherichia coli expressing NDM-1 (CLB30016) MITC95” value in data set [1] was determined as 0.7813 µM. In data set [2], the “Klebsiella pneumoniae expressing VIM-1 (IHMA599644) MITC95” value came to 1.563 µM. Moreover, in [3], the “Serratia marcescens expressing IMP-1 (CL5741) MITC95” value came to 1.563 µM. In data set [4], the “P. aeruginosa expressing IMP-1, efflux + (MB9798) MITC95” value worked out at 3.125 µM. Further, the “P. aeruginosa expressing IMP-1, efflux − (MB9799) MITC95” value in data set [5] stood at 0.7813 µM. Also, the Efflux ratio in [6] is 4.00.
For `NS(=O)(=O)c1c(S(=O)(=O)N[C@@H]2CCNC2)ccc(-c2ccc3nonc3c2)c1-c1nnn[nH]1` [Example 133, (R)-4-(benzo[c][1,2,5]oxadiazol-5-yl)-N1-(pyrrolidin-3-yl)-3-(1H-tetrazol-5-yl)benzene-1,2-disulfonamide], the concentration for half-maximal inhibition (IC50) at IMP-1 turned out to be 0.816 nM; on NDM-1 (setting [7]), 0.341 nM; at VIM-1 (setting [8]), 0.118 nM. In addition, the “Escherichia coli expressing NDM-1 (CLB30016) MITC95” value in data set [1] worked out at 0.7813 µM. In addition, in data set [2], the “Klebsiella pneumoniae expressing VIM-1 (IHMA599644) MITC95” value came out at 1.563 µM. Moreover, the “Serratia marcescens expressing IMP-1 (CL5741) MITC95” value in data set [3] worked out at 1.563 µM. For the same molecule, the “P. aeruginosa expressing IMP-1, efflux + (MB9798) MITC95” value in [4] was determined as 6.25 µM. In data set [5], the “P. aeruginosa expressing IMP-1, efflux − (MB9799) MITC95” value came out at 0.7813 µM. Also, in data set [6], the Efflux ratio is listed as 8.00.

What is called IC50 is the midpoint of a concentration-inhibition curve.
